Data reported in US4582820A, “Orally administered biologically active peptides and proteins” (Research Corporation, priority 1982, dated 1986).
Several values for one entry are separate records, joined by “and”; a condition that tells them apart may be missing. Equal entries are not always repeated. Where two headings read alike, the source gives them in different places.

How the values were obtained:
Mice = details: cited from earlier work; for LD50: Mice
[1] = tested on: diabetic (streptozotocin-treated) rats; experiment: Intravenous administration in diabetic rats, plasma glucose; type: in vivo; details: for % Initial plasma glucose conc. / Actual plasma glucose: iv 0.5 μ/kg
Procedure: (§1) The term "diabetic rat" in the following tests refers to rats having been treated with streptozoticin by intravenous injection at a dosage of 75 mg/kg at least 4 days prior to the experiments in question. All rats used in the experiments had been fasting 12-18 hours prior to the experiments. Blood samples were taken at appropriate intervals as disclosed in the tables from a vein cannula which was implanted in a jugular vein. During the experiments, rats were awake, were able to move freely and had access to water (but no food). Plasma glucose was measured on a Beckman Glucose Analyzer 2 employing the enzymatic reaction of β-D-glucose with oxygen and measuring oxygen consumption rather than hydrogen peroxide formation.
A. Intravenous (iv) Administration of Regular and Modified Insulin in Diabetic Rats
From 15 min to 45 min after iv administration, the induced hypoglycemic effect was more pronounced in regular-insulin-treated aminals.

[2] = tested on: diabetic (streptozotocin-treated) rats; experiment: Oral administration in diabetic rats, plasma glucose; type: in vivo, rat; details: for Glucose / Glucose Level (% initial level): unmodified insulin oral 80 μ/kg
Procedure: as §1
B. Oral Administration of Regular and Modified Insulin (at 80μ/kg) in Normal and Diabetic Rats.
The three controls were regular insulin, a carrier complex of SDS:TEA, and a complex of albumin:SDS:TEA in the same weight ratio as than in the insulin complex; i.e., albumin:SDS:TEA=5:7.5:3.6.
The results of oral administrations of modified insulin and carrier complex (SDS:TEA=1:1 by mole) in the amount equivalent to that in the sandwich complex of insulin calculated based on 80μof insulin per kg of rat in normal rats are shown in Tables 3 and 4. The results of oral administrations of modified insulin, regular insulin, carrier complex and the sandwich complex of albumin (albumin:SDS:TEA in a weight ratio of 5:7.5:3.6) in diabetic rats are shown in Tables 5, 6, 7 and 8 respectively.

[3] = diabetic rats, 15 min, mean ± SD
[4] = diabetic rats, 15 min, single rats
[5] = diabetic rats, 30 min, mean ± SD
[6] = diabetic rats, 30 min, single rats
[7] = diabetic rats, 45 min, mean ± SD
[8] = diabetic rats, 45 min, single rats
[9] = diabetic rats, 60 min, mean ± SD
[10] = diabetic rats, 60 min, single rats
[11] = diabetic rats, 90 min, mean ± SD
[12] = diabetic rats, 90 min, single rats
[13] = diabetic rats, 120 min, mean ± SD
[14] = diabetic rats, 120 min, single rats
[15] = diabetic rats, 180 min, mean ± SD
[16] = diabetic rats, 180 min, single rats
[17] = diabetic rats, 300 min, mean ± SD
[18] = diabetic rats, 300 min, single rats

## Cn1ccnc1 [1-methylimidazole]
Mice; ipr.
  LD50: 380 mg/kg
Mice; mouse, in vivo
  toxicity (in words): very slight
Mice; oral
  LD50: 1500 mg/kg

## Insulin: Insulin (bovine pancreas, crystalline; 25.5 μ/mg; Sigma)
[1]; [3]
  % Initial plasma glucose conc.: 63.8%
  Actual plasma glucose: 239 mg %
[1]; [4]
  % Initial plasma glucose conc.: 46.1% and 63.8% and 57.7% and 84.5% and 47.9% and 82.5%
  Actual plasma glucose: 197 mg % and 176 mg % and 214 mg % and 359 mg % and 113 mg % and 372 mg %
[1]; [5]
  % Initial plasma glucose conc.: 50.0%
  Actual plasma glucose: 185 mg %
[1]; [6]
  % Initial plasma glucose conc.: 43.9% and 53.6% and 16.2% and 69.7% and 36.9% and 79.4%
  Actual plasma glucose: 358 mg % and 159 mg % and 148 mg % and 60 mg % and 296 mg % and 87 mg %
[1]; [7]
  % Initial plasma glucose conc.: 48.3%
  Actual plasma glucose: 169 mg %
[1]; [8]
  % Initial plasma glucose conc.: 36.5% and 59.1% and 31.0% and 56.2% and 41.5% and 65.3%
  Actual plasma glucose: 296 mg % and 132 mg % and 163 mg % and 84 mg % and 239 mg % and 98 mg %
[1]; [9]
  % Initial plasma glucose conc.: 49.2 ± 15.4%
  Actual plasma glucose: 176 ± 83 mg %
[1]; [10]
  % Initial plasma glucose conc.: 38.4% and 57.6% and 27.2% and 51.8% and 48.3% and 71.6%
  Actual plasma glucose: 323 mg % and 139 mg % and 159 mg % and 101 mg % and 220 mg % and 114 mg %
[1]; [11]
  % Initial plasma glucose conc.: 53.0 ± 9%
  Actual plasma glucose: 190 ± 69 mg %
[1]; [12]
  % Initial plasma glucose conc.: 45.4% and 53.6% and 50.4% and 46.1% and 51.7% and 70.7%
  Actual plasma glucose: 319 mg % and 168 mg % and 148 mg % and 187 mg % and 196 mg % and 122 mg %
[1]; [13]
  % Initial plasma glucose conc.: 50.1 ± 10.1%
  Actual plasma glucose: 177 ± 32 mg %
[1]; [14]
  % Initial plasma glucose conc.: 42.3% and 58.0% and 56.9% and 35.1% and 60.6% and 47.8%
  Actual plasma glucose: 215 mg % and 153 mg % and 160 mg % and 211 mg % and 149 mg % and 143 mg %
[1]; [15]
  % Initial plasma glucose conc.: 57.8%
  Actual plasma glucose: 196 mg %
[1]; [16]
  % Initial plasma glucose conc.: 58.8% and 59.8% and 76.3% and 37.9% and 67.8% and 45.9%
  Actual plasma glucose: 207 mg % and 213 mg % and 165 mg % and 283 mg % and 161 mg % and 160 mg %
[1]; [17]
  % Initial plasma glucose conc.: 65.7%
  Actual plasma glucose: 225 mg %
[1]; [18]
  % Initial plasma glucose conc.: 60.8% and 58.1% and 89.2% and 46.6% and 90.7% and 48.6%
  Actual plasma glucose: 219 mg % and 220 mg % and 167 mg % and 331 mg % and 198 mg % and 214 mg %
[1]; iv administration, diabetic rat #285 treated with both agents
  hypoglycemic effect (in words), rat #285: progressive hypoglycemic effect
[1]; iv administration, diabetic rats
  hypoglycemic effect (in words): progressive, systemic, hypoglycemic effects for five hours in all animals
[2]; oral administration
  systemic hypoglycemic effect (in words): does not result in a systemic, hypoglycemic effect
[2]; 15 min, Mean ± Std. Dev.
  Glucose: 273 ± 112 mg/100 ml
  Glucose Level (% initial level): 134 ± 20%
[2]; 15 min, single rats
  Glucose: 145 mg/100 ml and 371 mg/100 ml and 214 mg/100 ml and 363 mg/100 ml
  Glucose Level (% initial level): 119% and 155.2% and 146.6% and 115%
[2]; 30 min, Mean ± Std. Dev.
  Glucose: 325 ± 28 mg/100 ml
  Glucose Level (% initial level): 104.7 ± 19.8%
[2]; 30 min, single rats
  Glucose: 293 mg/100 ml and 343 mg/100 ml and 340 mg/100 ml
  Glucose Level (% initial level): 122.6% and 107.9% and 83.5%
[2]; 45 min, Mean ± Std. Dev.
  Glucose: 327 ± 82 mg/100 ml
  Glucose Level (% initial level): 105.6 ± 31.2%
[2]; 45 min, single rats
  Glucose: 270 mg/100 ml and 421 mg/100 ml and 290 mg/100 ml
  Glucose Level (% initial level): 113.0% and 132.4% and 71.3%
[2]; 60 min, Mean ± Std. Dev.
  Glucose: 285 ± 87 mg/100 ml
  Glucose Level (% initial level): 124.1 ± 57.9%
[2]; 60 min, single rats
  Glucose: 152 mg/100 ml and 309 mg/100 ml and 272 mg/100 ml and 329 mg/100 ml and 410 mg/100 ml and 239 mg/100 ml
  Glucose Level (% initial level): 124.6% and 129.3% and 77.5% and 225.3% and 128.9% and 58.7%
[2]; 120 min, Mean ± Std. Dev.
  Glucose: 270 ± 118 mg/100 ml
  Glucose Level (% initial level): 121.4 ± 79.4%
[2]; 120 min, single rats
  Glucose: 122 mg/100 ml and 288 mg/100 ml and 251 mg/100 ml and 392 mg/100 ml and 411 mg/100 ml and 157 mg/100 ml
  Glucose Level (% initial level): 100% and 120.5% and 71.5% and 268.5% and 129.2% and 38.6%
[2]; 180 min, Mean ± Std. Dev.
  Glucose: 331 ± 127 mg/100 ml
  Glucose Level (% initial level): 123.3 ± 76.1%
[2]; 180 min, single rats
  Glucose: 296 mg/100 ml and 226 mg/100 ml and 502 mg/100 ml and 422 mg/100 ml and 211 mg/100 ml
  Glucose Level (% initial level): 123.9% and 64.5% and 243.8% and 132.7% and 51.8%
[2]; 300 min, Mean ± Std. Dev.
  Glucose: 282 mg/100 ml
  Glucose Level (% initial level): 116.1 ± 75.0%
[2]; 300 min, single rats
  Glucose: 290 mg/100 ml and 189 mg/100 ml and 342 mg/100 ml and 391 mg/100 ml and 196 mg/100 ml
  Glucose Level (% initial level): 121.3% and 53.8% and 234.2% and 123.0% and 48.2%
